Source: patent publication US6461997B1, “Triazole sulfones having herbicidal activity” (Monsanto Technology LLC, priority 1999, dated 2002)

Tests used:
[1] = tested on: CHEAL (common lambsquarters); experiment: Pre-emergence herbicidal activity, warm season; format: in vivo, Chenopodium album; conditions: GR80 = lowest tested rate (300, 100, 30, 10 g/ha) with 80% or greater inhibition; approx. 14 days after treating; 30/21° C.
Summary of the method: (§1)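 Seeds sown in sterilised fertilised topsoil received surface-applied compound in 50:50 acetone/water, typically at 300, 100, 30 and 10 g/ha, then greenhouse-grown at 30/21° C (warm-season species) or 18/13° C (cool-season species). Percent inhibition versus untreated plants was scored at about 14 days, giving GR80; an asterisk marks activity short of 80% at the top rate.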

PANDI (fall panicum) = experiment: Pre-emergence herbicidal activity, warm season; format: in vivo, Panicum dichotomiflorum; conditions: GR80 = lowest tested rate (300, 100, 30, 10 g/ha) with 80% or greater inhibition; approx. 14 days after treating; 30/21° C.
Protocol: Tables 5 to 8 summarize results of tests conducted as described below to determine the pre-emergence herbicidal activity, in the form of a GR80 value, of illustrative compounds of this invention. […] Compounds of the invention were typically applied at rates of 300, 100, 30, and 10 g/ha. Where herbicidal activity was evident but 80% inhibition was not achieved at the highest rate tested, an asterisk (*) is shown in the following tables.
The pre-emergence tests were conducted by the following procedure. Topsoil was sieved to pass through a 1.27 cm screen. Fertilizer was added to the topsoil and the mixture was then sterilized by heating. The topsoil mixture was placed in a pot and compacted to a depth of 1.0 to 1.25 cm from the top of the pot. Seeds of each of several monocotyledonous and dicotyledonous annual plant species were placed on top of the soil. Additional soil was subsequently placed over the seeds to level-fill the pot. A known amount of each test compound dissolved or suspended in an appropriate organic solvent was diluted with a 50:50 mix of acetone and water and applied to the surface of the soil. After treatment the plants were placed in a greenhouse where they received 0.64 cm of overhead irrigation. All subsequent watering consisted of a light overhead mist and/or subirrigation as needed for germination and growth. Tables 5 and 6 below relate to warm season plant species which were placed after pre-emergence treatment in a greenhouse with a 30/21° C. day/night temperature regime. Tables 7 and 8 below relates to cool season plant species placed after pre-emergence treatment in a greenhouse or growth chamber with an 18/13° C. day/night temperature regime.
Approximately 14 days after planting and treating, the plants were observed and herbicidal efficacy recorded as percent inhibition by comparison with untreated plants.
The plant species usually regarded as weeds which were utilized in the tests are identified in the tables below according to the following legend, in which “d” indicates a dicotyledonous species and “m” a monocotyledonous species. All monocotyledonous species included in the tests herein are grasses.

SORVU (shattercane) = experiment: Pre-emergence herbicidal activity, warm season; format: in vivo, Sorghum vulgare; conditions: GR80 = lowest tested rate (300, 100, 30, 10 g/ha) with 80% or greater inhibition; approx. 14 days after treating; 30/21° C.
Summary of the method: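 GR80 values derive from percent inhibition relative to untreated plants, read roughly 14 days after sowing and pre-emergence soil-surface treatment (compound in 50:50 acetone/water; rates typically 10, 30, 100, 300 g/ha). Warm-season weeds grew at 30/21° C day/night, cool-season ones at 18/13° C; an asterisk marks activity without reaching 80% at the highest rate.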

[2] = tested on: GALAP (catchweed bedstraw); experiment: Pre-emergence herbicidal activity, cool season; format: in vivo, Galium aparine; conditions: lowest tested rate with 80% or greater inhibition; rates 300, 100, 30, 10 g/ha; about 14 days
Summary of the method: as §1

POLCO (wild buckwheat) = experiment: Pre-emergence herbicidal activity, cool season; format: in vivo, Polygonum convolvulus; conditions: lowest tested rate with 80% or greater inhibition; rates 300, 100, 30, 10 g/ha; about 14 days
Summary of the method: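 Seeds were sown in sterilized, fertilized topsoil, covered, and the soil surface was sprayed with compound in 50:50 acetone/water at 300, 100, 30 and 10 g/ha. Pots were held at 30/21 °C day/night (PANMI, DIGSA) or 18/13 °C (ALOMY, POLCO). GR80 came from percent inhibition versus untreated plants at about 14 days.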

SINAR (wild mustard) = experiment: Pre-emergence herbicidal activity, cool season; format: in vivo, Sinapis arvensis; conditions: lowest tested rate with 80% or greater inhibition; rates 300, 100, 30, 10 g/ha; about 14 days
Summary of the method: as §1

[3] = tested on: VERPE (creeping speedwell); experiment: Pre-emergence herbicidal activity, cool season; format: in vivo, Veronica persicaria; conditions: lowest tested rate with 80% or greater inhibition; rates 300, 100, 30, 10 g/ha; about 14 days
Summary of the method: as §1

SASKR (russian thistle) = experiment: Pre-emergence herbicidal activity, cool season; format: in vivo, Salsola kali; conditions: lowest tested rate with 80% or greater inhibition; rates 300, 100, 30, 10 g/ha; about 14 days
Summary of the method: as §1

STEME (common chickweed) = experiment: Pre-emergence herbicidal activity, cool season; format: in vivo, Stellaria media; conditions: lowest tested rate with 80% or greater inhibition; rates 300, 100, 30, 10 g/ha; about 14 days
Summary of the method: as §1

[4] = tested on: LAMPU (purple deadnettle); experiment: Pre-emergence herbicidal activity, cool season; format: in vivo, Lamium purpureum; conditions: lowest tested rate with 80% or greater inhibition; rates 300, 100, 30, 10 g/ha; about 14 days
Summary of the method: as §1

[5] = tested on: AGSST (creeping bentgrass); experiment: Pre-emergence herbicidal activity, cool season; format: in vivo, Agrostis stolonifera; conditions: GR80 = lowest tested rate (300, 100, 30, 10 g/ha) with 80% or greater inhibition; approx. 14 days after treating; 18/13° C.
Summary of the method: as §1

ALOMY (blackgrass) = experiment: Post-emergence herbicidal activity, cool season; format: in vivo, Alopecurus myosuroides; conditions: abraded plants sprayed at 300, 100, 30 and 10 g/ha; about 14 days after treatment
Protocol: (§2) In another set of tests, the post-emergence activity of compounds of this invention was evaluated on the cool season species listed above. The following procedure was used.
(§3) A pre-prepared topsoil mixture (described above) was placed in a pot and compacted to a depth of 1.0 to 1.25 cm from the top of the pot. Seeds of each of several monocotyledonous and dicotyledonous annual plant species were placed on top of the soil. The seeds were covered with a mixture of 50% topsoil and 50% Rediearth™ in sufficient quantity to level-fill the pots. The pots were then placed on a greenhouse bench and subirrigated as needed.
(§4) When plants growing from the seeds had emerged and reached a suitable growth stage for post-emergence treatment, typically 9 to 14 days after planting, above-ground parts of the plants were subjected to a pre-treatment involving abrasion to create greater opportunity for foliar uptake of subsequently applied compounds. Abrasion was performed using garnet 200w particles applied with a Sears Craftsman hand-held sandblaster operated at approximately 850 kPa (50 psig) pressure.
(§5) A known amount of each test compound dissolved or suspended in an appropriate organic solvent was diluted with a 50:50 mix of acetone and water and applied to the plants by spraying with a standard spray nozzle in a spray volume of […] at a spray pressure of 511 kPa (30 psig). Only the compounds of Examples 1, 8-15 and 17-22 were included in post-emergence tests. Application rates for these compounds were 300, 100, 30 and 10 g/ha. Control plants were abraded but not sprayed.
(§6) After treatment the plants were placed in a greenhouse with an 18/13° C. day/night temperature regime and were subsequently watered as needed for growth. Approximately 14 days after treatment, the plants were observed and herbicidal efficacy recorded as percent inhibition by comparison with control plants. GR80 values were assigned for each compound as described above for the pre-emergence tests.

SETVI (green foxtail) = experiment: Post-emergence herbicidal activity, cool season; format: in vivo, Setaria viridis; conditions: abraded plants sprayed at 300, 100, 30 and 10 g/ha; about 14 days after treatment
Protocol: as §2, §3, §4, §5, §6

LOLMG (annual ryegrass) = experiment: Post-emergence herbicidal activity, cool season; format: in vivo, Lolium multiflorum; conditions: abraded plants sprayed at 300, 100, 30 and 10 g/ha; about 14 days after treatment
Protocol: as §2, §3, §4, §5, §6

BROTE (downy brome) = experiment: Post-emergence herbicidal activity, cool season; format: in vivo, Bromus tectorum; conditions: abraded plants sprayed at 300, 100, 30 and 10 g/ha; about 14 days after treatment
Protocol: as §2, §3, §4, §5, §6

AVEFA (wild oat) = experiment: Post-emergence herbicidal activity, cool season; format: in vivo, Avena fatua; conditions: abraded plants sprayed at 300, 100, 30 and 10 g/ha; about 14 days after treatment
Protocol: as §2, §3, §4, §5, §6

[6] = tested on: AEGCY (jointed goatgrass); experiment: Post-emergence herbicidal activity, cool season; format: in vivo, Aegilops cylindrica; conditions: abraded plants sprayed at 300, 100, 30 and 10 g/ha; about 14 days after treatment
Protocol: as §2, §3, §4, §5, §6

[7] = tested on: AGSST (creeping bentgrass); experiment: Post-emergence herbicidal activity, cool season; format: in vivo, Agrostis stolonifera; conditions: abraded plants sprayed at 300, 100, 30 and 10 g/ha; about 14 days after treatment
Protocol: as §2, §3, §4, §5, §6

[8] = tested on: AGRRE (quackgrass (seedling)); experiment: Post-emergence herbicidal activity, cool season; format: in vivo, Elymus repens; conditions: abraded plants sprayed at 300, 100, 30 and 10 g/ha; about 14 days after treatment
Protocol: as §2, §3, §4, §5, §6

CCN(CC)C(=O)n1cnc(S(=O)(=O)C(F)(F)SCCOC(=O)c2ccccc2)n1 [Example 22]
Pre-emergence activity (GR80) CHEAL [1]: 300 g/ha
Pre-emergence activity (GR80) PANDI (PANDI (fall panicum)): 300 g/ha
Pre-emergence activity (GR80) SORVU (SORVU (shattercane)): * (activity observed, at least at highest rate, but <80% inhibition)
Pre-emergence activity GR80, GALAP [2]: [empty]
Pre-emergence activity GR80, POLCO (POLCO (wild buckwheat)): [empty]
Pre-emergence activity GR80, SINAR (SINAR (wild mustard)): [empty]
Pre-emergence activity GR80, VERPE [3]: 300 g/ha
Pre-emergence activity GR80, SASKR (SASKR (russian thistle)): [empty]
Pre-emergence activity GR80, STEME (STEME (common chickweed)): [empty]
Pre-emergence activity GR80, LAMPU [4]: [empty]
Pre-emergence activity (GR80) AGSST [5]: 300 g/ha
Post-emergence activity GR80, ALOMY (ALOMY (blackgrass)): [empty]
Post-emergence activity GR80, SETVI (SETVI (green foxtail)): [empty]
Post-emergence activity GR80, LOLMG (LOLMG (annual ryegrass)): [empty]
Post-emergence activity GR80, BROTE (BROTE (downy brome)): [empty]
Post-emergence activity GR80, AVEFA (AVEFA (wild oat)): [empty]
Post-emergence activity GR80, AEGCY [6]: [empty]
Post-emergence activity GR80, AGSST [7]: [empty]
Post-emergence activity GR80, AGRRE [8]: [empty]
